From ChEMBL document CHEMBL5604062, “ASAP - ZIKV NS2B-NS3 protease fluorescence dose response” (2024) come the findings set out here.

A word on the IC50: it is the concentration at which inhibition is half-maximal.

Each structure is given as a SMILES string. Where “and” joins values, the source holds several entries; their conditions need not be identical. Identical values can stand only once.

Sequence of Nonstructural protein 3 (A0A024AXB9 whole entry): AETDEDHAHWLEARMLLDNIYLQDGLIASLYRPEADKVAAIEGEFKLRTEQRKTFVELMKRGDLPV

The assay has as its target Nonstructural protein 3 (Zika virus, UniProt A0A024AXB9). The experiment in a line: Functional biochemical assay to identify treatments for viral infectious disease that targets Zika NS2B-NS3 protease. Utilizing a direct enzyme activity measurement method, reading the fluorescence intensity is used to characterize the relative potency of inhibitors as IC50. Also noted: species or system PRVABC59.
Regarding `O=C(Nc1ccc2c(c1)CNC2)c1cc(Cl)cc2cn[nH]c12`, the IC50 was 0.047 µM and 0.042 µM. The same measure for `O=C(Cc1ccc2ncsc2c1)Nc1ccc2c(c1)CNC2`: above 25 µM. The result for `C=CC[C@H]1NCc2cc(NC(=O)c3cccc4c3CC(=O)N4)ccc21` reads 1.15 µM; that for `Cc1nc2c(C(=O)Nc3ccc4c(c3)CNC4)cccc2[nH]1`, 3.63 µM. The compound `O=C(Nc1ccc2c(c1)CNC2)c1ccc2sncc2c1` came in with an IC50 of 16 µM. The same measure for `O=C(Nc1ccc2c(c1)CNC2)c1cc(Cl)ccc1-n1cncn1`: 0.876 µM; for `Clc1cc([C@@H]2C[C@H]2c2cccc(C3CCNCC3)c2)c2cn[nH]c2c1`: 4.53 µM and 7.81 µM; for `Cc1nc(C2CC2)[nH]c1C(=O)Nc1cc(CCCN)ccn1`: above 25 µM.

On to `CC(C)c1nccn1C[C@H]1CCCN1C(=O)Nc1ccc2c(c1)CNC2`, for which the IC50 was above 25 µM.

As for `Cc1c(C(=O)Nc2cc(-c3cccnc3)ccn2)cc(C2CC2)n1C`, the IC50 was 5.84 µM and > 25 µM.

As to `NCc1ccccc1C(=O)Nc1ccc2c(c1)C(=O)OC2`, the IC50 is above 25 µM. The result for `O=C(Nc1ccc2c(c1)CNC2)c1cc(F)cc2[nH]cnc12` reads 0.176 µM. The same measure for `O=C(Nc1ccc2c(c1)CNC2)c1cccc2ccncc12`: 0.382 µM.

In turn, `Cn1cc2c(C(=O)Nc3ccc4c(c3)CNC4)cc(F)cc2n1` registered an IC50 of 0.107 µM.

On to `O=C(Nc1ccc2c(c1)CNC2)c1cc(Cl)nc2[nH]ccc12`, for which half-maximal inhibition (IC50) required 2.24 µM.

Compound `Cc1nc2c(C(=O)Nc3ccc4c(c3)CNC4)cc(Cl)cc2[nH]1` displayed an IC50 of 0.117 µM. The same measure for `N#C[C@H](Nc1ccc2c(c1)CNC2)c1cncc2ccccc12`: 3.87 µM; for `CC1CCN(CC[C@H]2CCCN2C(=O)Nc2ccc3c(c2)CNC3)CC1`: above 25 µM; for `O=C(Nc1ccc2c(c1)CNC2)c1cc2ncccc2s1`: above 25 µM.

For `CC(C)(C)OC(=O)N1Cc2cc(NC(=O)c3cc(Cl)cc4[nH]ncc34)cc(Br)c2C1`, the IC50 worked out at 16.4 µM. The result for `COC(=O)C(C)(C)NC(=O)[C@H](Nc1ccc2c(c1)CNC2)c1cc(Cl)cc(C2CC2)c1` reads 8.99 µM; that for `O=C(Nc1ccc2c(c1)CNC2)c1cccc(O)c1`, 3.94 µM; that for `CCOCC1(c2nc3c(C(=O)Nc4ccc5c(c4)CNC5)cc(Cl)cc3[nH]2)CC1`, 0.199 µM.

`O=C(Nc1ccc2c(c1)CNC2)c1nc(Cl)nc2[nH]ccc12`: the IC50 was above 25 µM.

`C=CC[C@H]1NCc2cc(NC(=O)c3cc(F)cc4[nH]ncc34)ccc21` came in with an IC50 of 0.289 µM. The result for `Cc1[nH]c2ccccc2c1[C@H]1CCN(C(=O)Nc2ccc3c(c2)CNC3)C1` reads above 25 µM; that for `O=C(Nc1cc([C@H]2CCOC2)ccn1)c1ccc2ncsc2c1`, above 25 µM. `CC(C)NC(=O)[C@H](Nc1ccc2c(c1)CNC2)c1cc(F)cc2[nH]ncc12` had an IC50 of 14.4 µM. `O=C(Nc1ccc2c(c1)CNC2)c1cc(C(F)(F)F)nc2[nH]ccc12` returned an IC50 of 7.32 µM. The same measure for `O=C(Nc1ccc2[nH]c(=O)[nH]c2c1)c1cc(F)cc2[nH]ncc12`: above 25 µM; for `CN(C)C(=O)N1Cc2ccc(NC(=O)c3cc(Cl)cc4[nH]ncc34)cc2C1`: above 25 µM; for `CC1=CC[C@H](c2cccc(-c3nn[nH]n3)c2)Nc2cc(Cl)ccc21`: above 25 µM.

`Cc1cc(C)n([C@H]2CCCN(C(=O)Nc3ccc4c(c3)CNC4)C2)n1` returned an IC50 above 25 µM.

`O=C(Nc1ccc2c(c1)CNC2)c1ccc(-c2cncs2)cc1` displayed an IC50 above 25 µM. The same measure for `O=C(Nc1ccc2c(c1)CNC2)c1ncc(Cc2ccccc2)s1`: above 25 µM.

As for `O=C(NC1CCOCC1)[C@H](Nc1ccc2c(c1)CNC2)c1cc(Cl)cc2[nH]ncc12`, the IC50 was 0.03 µM and 0.021 µM. The same measure for `CC(C)(C)NC(=O)[C@H](Nc1ccc2c(c1)CNC2)c1cc(Cl)cc2[nH]ncc12`: 3.12 µM; for `O=C(Nc1ccc2c(c1)CNC2)N1CCC[C@H]1c1cc(C(F)(F)F)no1`: above 25 µM; for `O=C(Nc1ccc2c(c1)CNC2)c1ccc2[nH]cnc2c1`: 2.95 µM.

Turning to `O=C(Nc1ccc2c(c1)CNC2)c1cc(F)cc2c1CCC2`, the IC50 is 0.099 µM and 0.09 µM.

`O=C(Nc1ccc2c(c1)CNC2)c1ccnc2[nH]ccc12`: the IC50 worked out at 21.1 µM.

`O=C(Nc1ccc2c(c1)CNC2)c1ccc2cc[nH]c2c1` registered an IC50 above 25 µM.

As for `NCc1cc(C=C2CC(C(=O)O)C2)cc(NC(=O)c2cc(Cl)cc(NC(=O)OCc3ccccc3)c2)c1` (stereo not given), the IC50 worked out at 9.31 µM. On to `O=C(Nc1ccc2c(c1)CNC2)c1cccc2[nH]c(=O)[nH]c12`, for which the IC50 was 0.068 µM and 0.064 µM. In turn, `CC[C@H]1CN(C(=O)Nc2ccc3c(c2)CNC3)C[C@@H]1c1ccc(OC)cc1` yielded an IC50 above 25 µM.

In turn, `CC(C)Nc1c(-c2cc(Cl)cc3[nH]ncc23)nc2ccc3c(n12)CNC3` registered an IC50 above 25 µM. The result for `O=C(Nc1ccc2c(c1)CNC2)c1cc(Cl)cc2[nH]c(CCc3cccnc3)nc12` reads 0.144 µM. The same measure for `O=C(Nc1ccc2c(c1)CNC2)c1ccc(OC(F)(F)F)cc1`: above 25 µM. The same measure for `O=C(Nc1ccc2c(c1)CNC2)c1cccc2nc(C(F)(F)F)[nH]c12`: 4.03 µM; for `C#C[C@H](Nc1ccc2c(c1)CNC2)c1cccc2c1CCNC2=O`: above 25 µM.

As to `CC(C)CNC(=O)[C@H](Nc1ccc2c(c1)CNC2)c1cc(Cl)cc2[nH]ncc12`, the IC50 was 0.075 µM and 0.054 µM.

In turn, `NCCCc1ccnc(NC(=O)c2cc(C3CC3)[nH]n2)c1` showed an IC50 above 25 µM. The same measure for `NCc1cc(CC(=O)O)cc([C@H]2C[C@@H]2c2cc(Cl)cc(NC(=O)OCc3ccccc3)c2)c1`: above 25 µM; for `CN(C)C(=O)CCCc1nc2c(C(=O)Nc3ccc4c(c3)CNC4)cc(Cl)cc2[nH]1`: 0.28 µM. `O=C(Nc1ccc2[nH]ncc2c1)c1cc(F)cc2[nH]ncc12` gave an IC50 above 25 µM.

For the compound `CCOCCNC(=O)[C@H](Nc1ccc2c(c1)CNC2)c1cc(Cl)cc2[nH]ncc12`, the IC50 is 0.06 µM and 0.042 µM. `O=C1Cc2ccc(NC(=O)c3cc(F)cc4[nH]ncc34)cc2N1` had an IC50 above 25 µM. `O=C(Nc1ccc2c(c1)CNC2)c1cccc2ncccc12` gave an IC50 of 3.4 µM. The same measure for `O=C(Nc1ccc2c(c1)CNC2)N1CCC[C@H](Cc2nccs2)C1`: above 25 µM; for `O=C1CC[C@H]2[C@H](CCN2C(=O)c2ccc3c(c2)CNC3)N1`: above 25 µM; for `CCCNC(=O)[C@H](Nc1ccc2c(c1)CNC2)c1cc(Cl)cc2[nH]ncc12`: 0.036 µM and 0.031 µM. The result for `O=C(Nc1nc(O)c2c(n1)CNC2)c1cc(Cl)cc2[nH]ncc12` reads 8.43 µM. The result for `O=C(Nc1ccc2c(c1)CNC2)c1ccc2ncccc2c1` reads above 25 µM; that for `Clc1cccc([C@H](C#Cc2ccccc2)Nc2ccc3c(c2)CNC3)c1`, 5.26 µM. Compound `O=C(Nc1ccc2c(c1)CNC2)c1cc(Cl)cc2[nH]c(C3(n4ccnn4)CC3)nc12` returned an IC50 of 0.765 µM. In the case of `O=C(Nc1cc2c(cc1Br)CNC2)c1cc(F)cc2[nH]ncc12`, the IC50 was 0.048 µM and 0.028 µM. The result for `C[C@](C#N)(Nc1ccc2c(c1)CNC2)c1cccc(Cl)c1` reads above 25 µM. The result for `O=C(Nc1ccc2c(c1)CNC2)c1ccc2[nH]ccc2c1` reads 1.67 µM and 2.5 µM; that for `Cc1csc(CO[C@H]2CCN(C(=O)Nc3ccc4c(c3)CNC4)C2)n1`, above 25 µM; that for `Clc1cc([C@H](C#CC2CC2)Nc2ccc3c(c2)CNC3)c2cn[nH]c2c1`, 1.35 µM.
